Data reported in PMC11268423 (Science Advances, 2024).

How the values were obtained:
Test in all cases: microbe, parasite or virus in culture
Type in all cases: cell-based
SARS-CoV-2 WA-1 (P1) [1] = conditions: Severe acute respiratory syndrome coronavirus 2
SARS-CoV-2 WA-1 (P1) [2] = conditions: Severe acute respiratory syndrome coronavirus 2, A549-ACE2
SARS-CoV-2 WA-1 strain = conditions: Severe acute respiratory syndrome coronavirus 2

Row | SMILES | EC50 (SARS-CoV-2 WA-1 (P1) [1]) [µM] | EC50 (SARS-CoV-2 WA-1 (P1) [2]) [µM] | EC50 (SARS-CoV-2 WA-1 strain) [µM] | EC90 (SARS-CoV-2 WA-1 strain) [µM]
1 | CC(C)(C)[C@H](NC(=O)C(F)(F)F)C(=O)N1C[C@H]2[C@@H]([C@H]1C(=O)N[C@H](C#N)C[C@@H]1CCNC1=O)C2(C)C [Nirmatrelvir] | 0.0348 | 0.054 | 0.15 | 0.37
2 | CCC(CC)COC(=O)[C@H](C)N[P@](=O)(OC[C@H]1O[C@@](C#N)(c2ccc3c(N)ncnn23)[C@H](O)[C@@H]1O)Oc1ccccc1 [Remdesivir] | 0.0291 | 0.075 | – | –
